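Results reflect a 48-hour exposure of cells in 96-well plates to compound at five concentrations. Here, GI50 denotes the concentration required for 50% inhibition of growth. The concentration for full growth arrest is given as TGI.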
How the values were obtained:
Assay in all cases: inhibition of tumour cell growth, NCI panel, 48 h
[1] = test system: HOP-62 NSCLC
[2] = test system: HCT-15 colon
[3] = test system: IGROV1 ovarian
[4] = test system: 786-0 renal
[5] = test system: K-562 leukemia
[6] = test system: SF-539 CNS
[7] = test system: SW-620 colon
[8] = test system: OVCAR-3 ovarian
[9] = test system: NCI-H522 lung
[10] = test system: MDA-MB-231 breast

Row | SMILES | TGI [1] [µM] | TGI [2] [µM] | TGI [3] [µM] | TGI [4] [µM] | TGI [5] [µM] | TGI [6] [µM] | TGI [7] [µM] | TGI [8] [µM] | GI50 [9] [µM] | TGI [9] [µM] | GI50 [1] [µM] | GI50 [2] [µM] | GI50 [10] [µM] | TGI [10] [µM] | GI50 [3] [µM] | GI50 [4] [µM] | GI50 [6] [µM] | GI50 [7] [µM] | GI50 [8] [µM] | GI50 [5] [µM]
1 | Cc1ccc(NC(=O)CC/C(CC(=O)C(C)(C)C)=N/NC(=O)C[N+](C)(C)C)cc1C | > 100 | > 100 | > 100 | 52.9 | > 100 | 44.8 | > 100 | > 100 |  |  |  |  |  |  |  |  |  |  |  | 
2 | O=c1c2cccc(F)c2sc2c(N3CCNCC3)nc3ccccc3c12 | 3.1 | 2.71 | 2.55 | 3.28 |  | 3.11 | 2.28 | 3.04 | 1.45 | 3.18 | 1.38 | 1.29 | 1.61 | 3.1 | 1.22 | 1.74 | 1.71 | 0.974 | 1.59 | 
3 | COC(=O)NN1C(C)=C(C(=O)OC)C2(C#N)C(C(=O)OC)=C(C)N(NC(=O)OC)C12N (stereo not given) | > 100 | > 100 | > 100 | > 100 | > 100 | > 100 | > 100 |  |  | > 100 |  |  |  |  |  |  |  |  |  | 
4 | CCCCCCC/C=C/[C@H]1O[C@]2(O)C(=O)C=C3C[C@@H](O[C@@H]4O[C@H](CO)[C@@H](O)C(O)[C@@H]4O)C[C@@H]3[C@H]2C=C1C (stereo not given in full) |  | 4.59 | 15.2 | 7.08 | 3.55 | 5.12 | 5.49 | 5.09 | 0.664 | 1.81 |  | 1.04 | 1.2 | 5.53 | 2.77 | 2.35 | 1.32 | 1.14 | 1.5 | 1.04
5 | CC1(C)CCCC(C)(C2CCC3(C)C2C(O)CC2C4(C)CCC(O)C(C)(C)C4C(O)CC23C)O1 (stereo not given) |  | 24.7 | 38.5 | 72.5 | 25.1 | 28.1 | 41.6 |  |  | 29.8 |  |  |  | 34.8 |  |  |  |  |  | 
6 | COC(=O)C[CH2][Ge]([CH3])([CH3])[S]c1ccccc1 | 65.4 | 28.8 | 4.72 | 45 | > 100 | 39.8 | 31.4 | > 100 | 10.8 | 23.2 | 22.6 | 15.4 |  |  | 1.25 | 21.6 | 21.1 | 16.7 | 29.9 | 34.8
7 | CC(C)=CCC1=C(OCC(=O)O)C(=O)c2ccccc2C1=O | > 100 | > 100 | > 100 | > 100 | > 100 | 56.6 | 76.6 |  |  | 57.4 |  |  |  | > 100 |  |  |  |  |  | 
8 | NC(=O)c1ncn(CCN2CCN(C(=O)NCCCCCCNC(=O)N3CCN(CCn4cnc(C(N)=O)c4N)CC3)CC2)c1N | > 100 | > 100 | > 100 | > 100 | > 100 | > 100 | > 100 | > 100 |  |  |  |  |  |  |  |  |  |  |  | 
9 | COc1ccc2c(c1)[n+]([O-])c(-c1ccc(Br)cc1)c(N)[n+]2[O-] | > 100 |  | > 100 | > 100 | > 100 | > 100 | > 100 | > 100 |  | 29.7 |  |  |  |  |  |  |  |  |  | 
10 | CCCCCc1cc[n+](CC(=O)c2ccc([N+](=O)[O-])cc2)cc1 | 28.3 | 49.9 | 24.4 | 74.2 |  | 72.1 | > 100 | 10.4 | 1.8 | 8.53 | 3.94 | 13.6 | 6.46 | 35.7 | 10.1 | 20.1 | 20.3 | 3.22 | 2.78 | 
11 | COC(=O)C1=Cc2cc(OC)c(OC)cc2[C@H](c2ccc(OC)c(OC)c2)C1C(=O)OC (stereo not given in full) | > 100 | > 100 | > 100 | > 100 | > 100 | > 100 | > 100 | > 100 |  |  |  |  |  |  |  |  |  |  |  | 
12 | Cc1cc(=O)n2c3c(c4c(cc13)c(CO)cc(=O)n4C)OC2 | 40.2 |  | > 100 | > 100 | 97.7 | 51.5 | > 100 | 40.1 |  | 17.7 |  |  |  |  |  |  |  |  |  | 
13 | N#Cc1ccsc1NC(=O)COC(=O)c1cccc(S(=O)(=O)N2CCc3ccccc32)c1 | > 100 | > 100 | > 100 | > 100 | > 100 | > 100 | > 100 | > 100 | 34.8 | > 100 | 22 | 3.25 |  |  | 7.84 | 47.3 | 15.1 | 24.1 | 53.7 | 21.3
14 | N.N.O=P([O-])([O-])CN(CCN(CP(=O)([O-])[O-])CP(=O)([O-])[O-])CP(=O)([O-])[O-].[Pt+2] | > 100 |  | > 100 | > 100 | > 100 | > 100 | > 100 | > 100 |  |  | > 100 |  |  |  | > 100 | > 100 | > 100 | > 100 | > 100 | > 100
15 | O=C1C(Nc2ccc(Br)cc2)=C(I)C(=O)c2ncccc21 | 8.31 | 1.79 | 1.36 | 2.21 | 3.61 | 2.49 | 1.51 | 0.524 |  |  | 2.31 | 0.588 | 0.806 | 1.63 | 0.678 | 0.905 | 1.03 | 0.531 | 0.154 | 0.499
16 | O=[N+]([O-])c1ccc(Sc2nc(Cl)nc(NC3CCCC3)n2)cc1 | > 10 | > 10 | > 10 | > 10 | > 10 | > 10 | > 10 | > 10 |  |  | > 10 | > 10 | > 10 | > 10 | 2.84 | > 10 | > 10 | 4.78 | > 10 | 5.89
